Measurements taken from PubChem BioAssay AID2060487 (Molecular Pharmacology Branch, DTP, NCI, 2025).
Values joined by “and” are separate entries in the source; they are usually repeats but may differ in a detail not shown here. Equal entries are not always repeated.

System: 997537-175-T-J1-PDC complex spheroid viability
Experiment: Anticancer human tumor 997537-175-T-J1-PDC patient-derived colon adenocarcinoma cell line growth inhibition [GQUAD]
Settings: for viability, T/C: stronger effect = lower value; active = viability on the fitted dose curve at most 10% of control; inactive = the rest
Excerpt: DNA G-quadruplex Stabilizer Agents in Combinations in Complex Spheroids
A high-throughput screen of multi-cell type tumor spheroids was designed to identify active combinations of DNA G-quadruplex stabilizer agents and targeted small molecules. Complex spheroids include a stromal component modeled by human endothelial cells (HUVEC) and fibroblasts modeled by human mesenchymal stem cells (MSCs). The concentration ranges selected for each drug and investigational agent were based upon clinically achievable concentrations if the clinical Cmax of the agent was known.
Compounds. The drugs and investigational agents: pidnarulex (CX-5461; NSC782164), APTO-253 (NSC789042), BRACO-19 (NSC847499), peposertib (NSC802822), ceralasertib (NSC780249), elimusertib (NSC800525), camonsertib (NSC841442), AZD-1390 (NSC803789), olaparib (NSC753686), talazoparib (NSC767125), ART-558 (NSC835418), sotorasib (NSC818433), MRTX-1133 (NSC836407), SN-38 (NSC673596), topotecan (NSC609699), etoposide (NSC141540), doxorubicin (NSC123127), gemcitabine (NSC613327), 5-fluorouracil (NSC19893), paclitaxel (NSC125973), vemurafenib (NSC761431), panobinostat (NSC761190), R-306465 (JNJ-16241199; NSC773264), adavosertib (NSC754352), TP-3654 (NSC805149), carboplatin (NSC241240), KSQ-4279 (NSC840948), and staurosporine (NSC755774) were obtained from the National Cancer Institute (NCI) Developmental Therapeutics Program Chemical Repository (34). The FDA-approved anticancer drug set is available from the NCI Developmental Therapeutics Program. […] The stock solutions were prepared in dimethyl sulfoxide (DMSO, Sigma-Aldrich, St. Louis, MO, cat. D2650) at 800-fold the tested concentration and stored at -70 degrees C prior to their use. All drugs and investigational agents were tested over a range starting from a high concentration at or near the clinical Cmax and decreasing in half-log increments. If the clinical Cmax for an agent had not been determined, the highest concentration tested was 10 microM.
2.3 Cell Culture. All cells were maintained in an incubator at 37 degrees C and 5% CO2 with 95% humidity. The PDC lines were cultured according to standard operating procedures established by the NCI PDMR. All PDCs were thawed and cultured in Matrigel-coated flasks prepared with a working solution of 1X Ham's F-12 nutrient mix, without supplementation (Invitrogen, cat. 11765054), 100 U/mL penicillin-streptomycin (Invitrogen, cat. 15140122), and 2.5% Matrigel (Corning Inc., cat. 354248) for the first three passages. The 857933-349-R-J2-PDC line was cultured in 6C/Colon 1B media, which includes advanced DMEM/F-12 (Thermo Fisher Scientific, cat. 12634028), 10 mM HEPES (Thermo Fisher Scientific, cat. 15630080), 1X GlutaMAX supplement (Thermo Fisher Scientific, cat. 35050061), 0.1 mg/mL primocin (InvivoGen, cat. ant-pm-2), 10% defined fetal bovine serum, heat inactivated (HyClone Laboratories Inc., cat. SH30070.03HI), 50% L-WRN conditioned media (ATCC, cat. CRL-3276), 1.25 mM N-Acetyl-L-cysteine (Sigma-Aldrich, cat. A9165), 10 mM nicotinamide (Sigma-Aldrich, cat. N0636), 1X B-27 supplement (Thermo Fisher Scientific, cat. 17504044), 1X N-2 supplement (Thermo Fisher Scientific, cat. 17502048), 10 microM Y-27632 dihydrochloride (Tocris Bioscience, cat. 1254), and 50 ng/mL human EGF recombinant protein (Thermo Fisher Scientific, cat. PHG0311). The 485176-168-R4-J1-PDC line was cultured in Panc media, which includes all 6C/Colon 1B media components plus 100 ng/mL human FGF-10 (Thermo Fisher Scientific, cat. 100-26), 500 nM SB-431542 (Selleckchem, cat. S1067), and gastrin (Tocris, cat. 3006).
[…]
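Note: spheroids exposed to the agents for 7 days.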

CC(C)(O)C1CCC(Nc2ccc3ncc(-c4cccc(C(F)(F)F)c4)n3n2)CC1 (stereo not given) + Cc1[nH]c2ccc(F)cc2c1-c1nc2c3cccnc3c3ncccc3c2[nH]1
inactive: viability, T/C (second compound 0.0316 µM, first compound 0.0316 µM) 114% | viability, T/C (second compound 0.0316 µM, first compound 0.1 µM) 107% | viability, T/C (second compound 0.0316 µM, first compound 0.316 µM) 103% | viability, T/C (second compound 0.0316 µM, first compound 1 µM) 108% | viability, T/C (second compound 0.0316 µM, first compound 3.16 µM) 107% | viability, T/C (second compound 0.0316 µM, first compound 10 µM) 114% | viability, T/C (second compound 0.1 µM, first compound 0.0316 µM) 120% | viability, T/C (second compound 0.1 µM, first compound 0.1 µM) 103% | viability, T/C (second compound 0.1 µM, first compound 0.316 µM) 97.5% | viability, T/C (second compound 0.1 µM, first compound 1 µM) 103% | viability, T/C (second compound 0.1 µM, first compound 3.16 µM) 99.3% | viability, T/C (second compound 0.1 µM, first compound 10 µM) 105% | viability, T/C (second compound 0.316 µM, first compound 0.0316 µM) 101% | viability, T/C (second compound 0.316 µM, first compound 0.1 µM) 105% | viability, T/C (second compound 0.316 µM, first compound 0.316 µM) 108% | viability, T/C (second compound 0.316 µM, first compound 1 µM) 101% | viability, T/C (second compound 0.316 µM, first compound 3.16 µM) 104% | viability, T/C (second compound 0.316 µM, first compound 10 µM) 99.4% | viability, T/C (second compound 1 µM, first compound 0.0316 µM) 115% | viability, T/C (second compound 1 µM, first compound 0.1 µM) 99% | viability, T/C (second compound 1 µM, first compound 0.316 µM) 101% | viability, T/C (second compound 1 µM, first compound 1 µM) 101% | viability, T/C (second compound 1 µM, first compound 3.16 µM) 97.7% | viability, T/C (second compound 1 µM, first compound 10 µM) 90.5% | viability, T/C (second compound 3.16 µM, first compound 0.0316 µM) 94.9% | viability, T/C (second compound 3.16 µM, first compound 0.1 µM) 97.2% | viability, T/C (second compound 3.16 µM, first compound 0.316 µM) 93.5% | viability, T/C (second compound 3.16 µM, first compound 1 µM) 90.7% | viability, T/C (second compound 3.16 µM, first compound 3.16 µM) 104% | viability, T/C (second compound 3.16 µM, first compound 10 µM) 96.9% | viability, T/C (second compound 10 µM, first compound 0.0316 µM) 98.1% | viability, T/C (second compound 10 µM, first compound 0.1 µM) 80.3% | viability, T/C (second compound 10 µM, first compound 0.316 µM) 88.9% | viability, T/C (second compound 10 µM, first compound 1 µM) 97.4% | viability, T/C (second compound 10 µM, first compound 3.16 µM) 78.3% | viability, T/C (second compound 10 µM, first compound 10 µM) 79.6%
> 10 µM: IC50 (curve of first compound, second compound 0.0316 µM) | IC50 (curve of first compound, second compound 0.1 µM) | IC50 (curve of first compound, second compound 0.316 µM) | IC50 (curve of first compound, second compound 1 µM) | IC50 (curve of first compound, second compound 3.16 µM) | IC50 (curve of first compound, second compound 10 µM)

O=C(NO)c1cnc(N2CCN(S(=O)(=O)c3ccc4ccccc4c3)CC2)nc1
23.3% and 0.34% and 0.28%: viability, T/C (compound 10 µM)
inactive: viability, T/C (compound 0.0316 µM) 65.3% and 97.2% and 113% | viability, T/C (compound 0.1 µM) 24.7% and 95.1% and 86.5% | viability, T/C (compound 0.316 µM) 47.4% and 101% and 105% | viability, T/C (compound 1 µM) 41.2% and 82% and 69% | viability, T/C (compound 3.16 µM) 42.8% and 22.4% and 27.3%

CCc1c2c(nc3ccc(O)cc13)-c1cc3c(c(=O)n1C2)COC(=O)[C@]3(O)CC
inactive: viability, T/C (compound 0.000999 µM) 83.3% and 102% and 95.3% | viability, T/C (compound 0.00316 µM) 63.9% and 92% and 82.8% | viability, T/C (compound 0.00999 µM) 52.7% and 68.5% and 49% | viability, T/C (compound 0.0316 µM) 34.5% and 31.5% and 19.4%
0.0105 µM and 0.0174 µM and 0.00978 µM: IC50 (curve of compound)
6.34% and 5.01% and 4.92%: viability, T/C (compound 0.0999 µM)
active: viability, T/C (compound 0.316 µM) 2.98% and 3.42% and 6.93%
